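96-well plates; 48 h exposure; 5 concentrations. Endpoints by linear interpolation between flanking doses. Not reached: highest tested concentration assigned. TGI marks complete inhibition of growth.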
Columns and labels:
Assay in all cases: NCI-60 cell line screen, 48 h
A498 renal = system: A498 renal
A549 NSCLC = system: A549 NSCLC
ACHN renal = system: ACHN renal
CCRF-CEM leukemia = system: CCRF-CEM leukemia
DMS 114 small cell lung = system: DMS 114 small cell lung
DMS 273 small cell lung = system: DMS 273 small cell lung
EKVX NSCLC = system: EKVX NSCLC
HCT-116 colon = system: HCT-116 colon
HL-60(TB) leukemia = system: HL-60(TB) leukemia
HOP-62 NSCLC = system: HOP-62 NSCLC
HOP-92 NSCLC = system: HOP-92 NSCLC
HT29 colon = system: HT29 colon
IGROV1 ovarian = system: IGROV1 ovarian
KM12 colon = system: KM12 colon
M14 melanoma = system: M14 melanoma
M19-MEL melanoma = system: M19-MEL melanoma
MOLT-4 leukemia = system: MOLT-4 leukemia
NCI-H23 lung = system: NCI-H23 lung
NCI-H460 lung = system: NCI-H460 lung
NCI-H522 lung = system: NCI-H522 lung
OVCAR-5 ovarian = system: OVCAR-5 ovarian
OVCAR-8 ovarian = system: OVCAR-8 ovarian
RXF 393 renal = system: RXF 393 renal
RXF-631 renal = system: RXF-631 renal
SF-295 CNS = system: SF-295 CNS
SK-MEL-28 melanoma = system: SK-MEL-28 melanoma
SK-OV-3 ovarian = system: SK-OV-3 ovarian
SNB-19 CNS = system: SNB-19 CNS
SNB-78 CNS = system: SNB-78 CNS
SR leukemia = system: SR leukemia
TK-10 renal = system: TK-10 renal
U251 CNS = system: U251 CNS
UACC-257 melanoma = system: UACC-257 melanoma
UACC-62 melanoma = system: UACC-62 melanoma
UO-31 renal = system: UO-31 renal
786-0 renal = system: 786-0 renal
COLO 205 colon = system: COLO 205 colon
DLD-1 colon = system: DLD-1 colon
HCC-2998 colon = system: HCC-2998 colon
HCT-15 colon = system: HCT-15 colon
K-562 leukemia = system: K-562 leukemia
KM20L2 colon = system: KM20L2 colon
LOX IMVI melanoma = system: LOX IMVI melanoma
LXFL 529 NSCLC = system: LXFL 529 NSCLC
MALME-3M melanoma = system: MALME-3M melanoma
NCI-H226 lung = system: NCI-H226 lung
OVCAR-3 ovarian = system: OVCAR-3 ovarian
OVCAR-4 ovarian = system: OVCAR-4 ovarian
RPMI-8226 leukemia = system: RPMI-8226 leukemia
SF-268 CNS = system: SF-268 CNS
SF-539 CNS = system: SF-539 CNS
SK-MEL-2 melanoma = system: SK-MEL-2 melanoma
SK-MEL-5 melanoma = system: SK-MEL-5 melanoma
SN12C renal = system: SN12C renal
SNB-75 CNS = system: SNB-75 CNS
SW-620 colon = system: SW-620 colon
XF 498 CNS = system: XF 498 CNS

Work on CCN(CC)CSc1nc2ccccc2o1 yielded a TGI (A498 renal) greater than 100 µM, a TGI (A549 NSCLC) greater than 100 µM and a TGI (ACHN renal) greater than 100 µM. The TGI (CCRF-CEM leukemia) was greater than 100 µM, the TGI (DMS 114 small cell lung) was greater than 100 µM and the TGI (DMS 273 small cell lung) was greater than 100 µM. It also gave a TGI (EKVX NSCLC) greater than 100 µM, a TGI (HCT-116 colon) greater than 100 µM and a TGI (HL-60(TB) leukemia) greater than 100 µM. For the same compound, the TGI (HOP-62 NSCLC) was greater than 100 µM, the TGI (HOP-92 NSCLC) was greater than 100 µM and the TGI (HT29 colon) was greater than 100 µM. The TGI (IGROV1 ovarian) was greater than 100 µM, the TGI (KM12 colon) was greater than 100 µM and the TGI (M14 melanoma) was greater than 100 µM. The TGI (M19-MEL melanoma) was greater than 100 µM, the TGI (MOLT-4 leukemia) was greater than 100 µM and the TGI (NCI-H23 lung) was greater than 100 µM. The TGI (NCI-H460 lung) was greater than 100 µM, the TGI (NCI-H522 lung) was greater than 100 µM and the TGI (OVCAR-5 ovarian) was greater than 100 µM. It also gave a TGI (OVCAR-8 ovarian) greater than 100 µM, a TGI (RXF 393 renal) greater than 100 µM and a TGI (RXF-631 renal) greater than 100 µM. For the same compound, the TGI (SF-295 CNS) was greater than 100 µM, the TGI (SK-MEL-28 melanoma) was greater than 100 µM and the TGI (SK-OV-3 ovarian) was greater than 100 µM. It also gave a TGI (SNB-19 CNS) greater than 100 µM, a TGI (SNB-78 CNS) greater than 100 µM and a TGI (SR leukemia) greater than 100 µM. For the same compound, the TGI (TK-10 renal) was greater than 100 µM, the TGI (U251 CNS) was greater than 100 µM and the TGI (UACC-257 melanoma) was greater than 100 µM. It also gave a TGI (UACC-62 melanoma) greater than 100 µM and a TGI (UO-31 renal) greater than 100 µM.

With Cc1c(NC(=O)C(C)(C)Br)c(=O)oc2c(C)c3occc(=O)c3cc12 the TGI (786-0 renal) was greater than 100 µM, the TGI (A498 renal) was 66.3 µM and the TGI (A549 NSCLC) was greater than 100 µM. It also gave a TGI (ACHN renal) greater than 100 µM, a TGI (CCRF-CEM leukemia) greater than 100 µM and a TGI (COLO 205 colon) greater than 100 µM. The TGI (DLD-1 colon) was greater than 100 µM, the TGI (DMS 114 small cell lung) was greater than 100 µM and the TGI (DMS 273 small cell lung) was greater than 100 µM. For the same compound, the TGI (EKVX NSCLC) was greater than 100 µM, the TGI (HCC-2998 colon) was greater than 100 µM and the TGI (HCT-116 colon) was greater than 100 µM. It also gave a TGI (HCT-15 colon) greater than 100 µM, a TGI (HL-60(TB) leukemia) greater than 100 µM and a TGI (HOP-62 NSCLC) greater than 100 µM. It also gave a TGI (HT29 colon) greater than 100 µM, a TGI (IGROV1 ovarian) greater than 100 µM and a TGI (K-562 leukemia) greater than 100 µM. The TGI (KM20L2 colon) was greater than 100 µM, the TGI (LOX IMVI melanoma) was greater than 100 µM and the TGI (LXFL 529 NSCLC) was greater than 100 µM. For the same compound, the TGI (M14 melanoma) was greater than 100 µM, the TGI (MALME-3M melanoma) was greater than 100 µM and the TGI (MOLT-4 leukemia) was greater than 100 µM. It also gave a TGI (NCI-H226 lung) of 71.9 µM, a TGI (NCI-H23 lung) greater than 100 µM and a TGI (NCI-H460 lung) greater than 100 µM. It also gave a TGI (OVCAR-3 ovarian) greater than 100 µM, a TGI (OVCAR-4 ovarian) greater than 100 µM and a TGI (OVCAR-8 ovarian) greater than 100 µM. For the same compound, the TGI (RPMI-8226 leukemia) was greater than 100 µM, the TGI (RXF 393 renal) was greater than 100 µM and the TGI (RXF-631 renal) was greater than 100 µM. It also gave a TGI (SF-268 CNS) greater than 100 µM, a TGI (SF-295 CNS) greater than 100 µM and a TGI (SF-539 CNS) greater than 100 µM. It also gave a TGI (SK-MEL-2 melanoma) greater than 100 µM, a TGI (SK-MEL-28 melanoma) greater than 100 µM and a TGI (SK-MEL-5 melanoma) greater than 100 µM. The TGI (SN12C renal) was greater than 100 µM, the TGI (SNB-19 CNS) was greater than 100 µM and the TGI (SNB-75 CNS) was greater than 100 µM. It also gave a TGI (SR leukemia) greater than 100 µM, a TGI (SW-620 colon) greater than 100 µM and a TGI (TK-10 renal) greater than 100 µM. For the same compound, the TGI (U251 CNS) was greater than 100 µM, the TGI (UACC-257 melanoma) was greater than 100 µM and the TGI (UACC-62 melanoma) was greater than 100 µM. The TGI (UO-31 renal) was 76.2 µM and the TGI (XF 498 CNS) was 98.6 µM.
